Laboratory results from patent US20250346588A1, “IMIDAZOPYRIDINE AND OXAZOLOPYRIDINE DERIVATIVES AND ANALOGS THEREOF, METHODS OF PREPARATION THEREOF, METHODS OF HIF-1/2A PATHWAY INHIBITION, AND INDUCTION OF FERROPTOSIS” (KUDA THERAPEUTICS, INC., priority 2022, published 2025).
pIC50: −log10 of the molar value.

Columns and labels:
[1] = tested on: HIF-2α transcriptional activity; experiment: Hypoxia-responsive element-driven luciferase (HRE-Luc) screen; format: cell-based, human; conditions: 786-0 ccRCC cells stably expressing HRE-Luc, 24 h treatment, range of IC50 values
Protocol: Screens for inhibitory activity of compounds described herein were performed using 786-0 ccRCC cells that stably express HRE-Luc: 5 copies of the hypoxia-responsive element (HRE) fused to the pGL3 luciferase reporter (Promega Corp, Madison WI). 786-0 cells are pVHL deficient and thus constitutively express HIF-2α independently of cellular oxygen tension. Since 786-0 cells lack HIF-1α, HRE-driven luciferase activity is primarily HIF-2α driven, and has been previously validated. Cells were maintained at log phase growth in […] (DMEM) with 10% FBS in a humidified incubator at 37° C. with 5% CO2. For screening assays, cells were seeded at a density of 4,000 cells in 50 μl of complete media/well in quadruplicate wells/point in a 96-well plate. After 24 h, 50 μl of a 2× concentration of test compound was added to each well. Compounds were diluted from a 5-10 mM stock in DMSO and final concentrations of DMSO in each well in controls and treated wells were kept constant at ≤0.6% DMSO. After 24 h treatment, luciferase activity was measured using the Steady-Glo Luciferase assay system (Promega Corp) according to the manufacturer's protocol. Cell viability was measured in quadruplicate parallel wells using resazurin as recommended by the manufacturer (R&D systems, Minneapolis, MN). Data for luciferase and resazurin were normalized to DMSO treated controls (defining 100%) and wells containing assay reagent but no cells (defining 0%) and graphed using the log inhibitor versus normalized response option in Graphpad Prism 9.3.1 software. Representative data determined using Steady-Glo luciferase and resazurin are shown in FIGS. 1A and 1B respectively, with error bars showing SD. Filled diamonds, empty squares and empty triangles indicate treatment with 3, 8 and 22 respectively with results for HRE-Luc shown in FIG. 1A.

ISCA2 = molecular target: T1, ISCA2 (Homo sapiens, UniProt Q86U28); experiment: Thermal shift assay with recombinant ISCA2 (SYPRO Orange); format: binding
T1 construct: His6 (N); made in house; host or cells: E. coli Rosetta (DE3)
T1 sequence (Q86U28 9-154): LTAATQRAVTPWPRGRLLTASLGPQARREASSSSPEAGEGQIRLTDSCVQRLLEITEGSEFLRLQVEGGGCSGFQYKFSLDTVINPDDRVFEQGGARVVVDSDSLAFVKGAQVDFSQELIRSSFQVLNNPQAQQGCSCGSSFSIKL
Protocol: Thermal shift assays were performed by monitoring the change in protein melting temperature (Tm) in the absence or presence of test compounds, using the hydrophobic protein binding dye, SYPRO Orange (S6650, Thermo Fisher Scientific), measured using the LightCycler 480 (Roche Life Sciences, Indianapolis, IN) according to the manufacturer's protocol. Recombinant ISCA2 was produced by expressing amino acid residues 9-154 of ISCA2 (ISCA2 lacking its mitochondrial localization sequence) in the pET28 vector containing an N-terminal His6 tag in Rosetta (DE3) competent cells (Novagen, Millipore Sigma). ISCA2 production was induced by treating ISCA2 transformed log phase cells with 0.25 mM IPTG for 4 hours at 18° C. ISCA2 was purified using Ni^2+ affinity purification according to standard protocols and eluted in 50 mM Tris-C1 pH7.4, 150 mM NaCl, 5 mM DTT. Thermal shift assays were performed in 384-well plates using 1 μl of a 10× concentration of SYPRO Orange, 8 μl of ISCA2 (4 μg protein) and 1 μl of 1-2 mM stock of test compound per well. The LightCycler was used according to the following setup: LightCycler 480 Instrument Temperature Setup: First target of 20° C., with a Hold of 15 seconds; second target of 95° C., with Acquisition Mode of Continuous, and 10 acquisitions per degree c.; and third target of 20° C., with a Hold of 15 seconds. Tms were determined using Roche Protein Melting Analysis Software. Representative data are shown in FIGS. 6 and 7 using compound 1 and 26HCL at 200 and 100 µM final concentration respectively. […] These findings are supported by studies showing that re-expression of VHL (which increases ISCA2) and overexpression of ISCA2 itself, promotes the resistance of cells to the compounds (shown in FIG. 8).

HIF-1α and HIF-2α = experiment: Western blots for HIF-1α and HIF-2α in ccRCC cells; format: cell-based, human; conditions: 786-0 or RCC10 ccRCC cells, 24h, relative to GAPDH
Protocol: (§1) Western blots were performed to determine the effects of the compounds on levels of HIF-2α and other relevant proteins, whereas qPCR was performed to determine the effects of compounds on transcript levels of HIF target genes. 786-0 or RCC10 cells were plated at 1×10E5 cells/well in 2 ml DMEM with 10% FBS/well in 6-well tissue culture plates. Cells were allowed to adhere overnight in a humidified incubator at 37° C. with 5% CO2, after which the appropriate concentrations of compounds in DMSO were added. DMSO concentrations were kept constant in all wells. After 24 h exposure to the compounds, cells were lysed and subjected to western blotting according to standard protocols. Antibodies for HIF-1α and HIF-2α and GAPDH were purchased from Cell Signaling Technology (Danvers, MA), whereas antibodies to IRP2 and pVHL were from Santa Cruz Biotechnology (Dallas, TX), and GPX4 antibody was from R&D Systems, Inc (Minneapolis, MN). Representative data in FIG. 2 show a dose-dependent effect of compounds in decreasing HIF-1/2α. Compounds also impact cellular iron sensing given by increased IRP2, which taken together indicate that cells sense decreased amounts of available iron, which triggers the iron starvation response initiated by IRP2 stabilization. Representative data shown in FIG. 3D show a dose dependent effect of the compounds on GPX4, which may indicate decreased resistance to ferroptosis. […] The data also show increased expression of ISCA2 with pVHL re-expression.

IRP2 and GPX4 = experiment: Western blots for cellular iron-sensing machinery (IRP2, GPX4); format: cell-based, human; conditions: 786-0 or RCC10 ccRCC cells, 24h, relative to GAPDH
Protocol: as §1

Compound	pIC50 ([1]; Homo sapiens, 786-0, 24 h)	other results
COc1cccc2sc(Nc3nnc(-c4ccc(F)cc4)o3)nc12 [Compound 1, 5-(4-fluorophenyl)-N-(4-methoxybenzo[d]thiazol-2-yl)-1,3,4-oxadiazol-2-amine]	> 5.00	Tm of ISCA2 in compound-treated wells (ISCA2; 200 μM compound, control wells 53.21±0.36): 55.63±0.26 °C; change in melting temperature of ISCA2 (in words) (ISCA2; compound 1 and 26HCL at 200 and 100 μM final concentration respectively): significant change in melting temperature of ISCA2; effect on HIF-1α and HIF-2α protein (Western blot) (HIF-1α and HIF-2α): decreases HIF-1α and HIF-2α; effect on IRP2 protein (Western blot) (IRP2 and GPX4): increases IRP2
Fc1ccc(-c2nnc(Nc3nc4cnc(Cl)cc4[nH]3)o2)cc1 [Compound 5, N-(6-Chloro-1H-imidazo[4,5-c]pyridin-2-yl)-5-(4-fluorophenyl)-1,3,4-oxadiazol-2-amine]	4.30 to 5.00	
COc1ccc2[nH]c(Nc3nnc(-c4ccc(F)cc4)o3)nc2n1 [Compound 4, 5-(4-Fluorophenyl)-N-(5-methoxy-1H-imidazo[4,5-b]pyridin-2-yl)-1,3,4-oxadiazol-2-amine]	> 5.00	
COc1ccc(-c2nnc(Nc3nc4c(OC)cccc4[nH]3)o2)cc1OC [Compound 84, 5-(3,4-dimethoxyphenyl)-N-(4-methoxy-1H-benzo [d]imidazol-2-yl)-1,3,4-oxadiazol-2-amine]	> 5.00	
COc1nc(C)cc2[nH]c(Nc3nnc([C@H]4CC[C@H](OC)CC4)o3)nc12 [Compound 99, N-(4-methoxy-6-methyl-1H-imidazo[4,5-c]pyridin-2-yl)-5-((1r,4r)-4-methoxycyclohexyl)-1,3,4-oxadiazol-2-amine]		pIC50 [1]: > 5.00
Fc1ccc(-c2nnc(Nc3nc4cncc(N5CCOCC5)c4[nH]3)o2)cc1 [Compound 18, 5-(4-Fluorophenyl)-N-(7-morpholino-1H-imidazo[4,5-c]pyridin-2-yl)-1,3,4-oxadiazol-2-amine]	4.30 to 5.00	
COc1ccc(-c2nnc(Nc3nc4ncccc4o3)o2)cc1 [Compound 30, N-(5-(4-Methoxyphenyl)-1,3,4-oxadiazol-2-yl)oxazolo[4,5-b]pyridin-2-amine]	> 5.00	
COc1ccc(-c2nnc(Nc3nc4c(OC)cccc4[nH]3)o2)cc1F [Compound 85, 5-(3-fluoro-4-methoxyphenyl)-N-(4-methoxy-1H-benzo[d]imidazol-2-yl)-1,3,4-oxadiazol-2-amine]	< 4.00	
Fc1ccc(-c2nnc(Nc3nc4ncccc4o3)o2)cc1 [Compound 8, N-(5-(4-Fluorophenyl)-1,3,4-oxadiazol-2-yl)oxazolo[4,5-b]pyridin-2-amine]	< 5.00	
COc1cccc2[nH]c(Nc3nnc(-c4ccc5c(c4)CCO5)o3)nc12 [Compound 87, 5-(2,3-dihydrobenzofuran-5-yl)-N-(4-methoxy-1H-benzol[d]imidazol-2-yl)-1,3,4-oxadiazol-2-amine]	4.30 to 5.00	
COc1ccc(-c2cnc(Nc3nc4c(OC)nccc4[nH]3)o2)cc1OC [Compound 59, 5-(3,4-dimethoxyphenyl)-N-(4-methoxy-1H-imidazo[4,5-c]pyridin-2-yl)oxazol-2-amine]	4.00 to 4.30	
COc1cccc2nc(Nc3nnc(C4CCC(C(C)(C)C)CC4)o3)[nH]c12 (centres unmarked) [Compound 94, 5-(4-(tert-butyl)cyclohexyl)-N-(7-methoxy-1H-benzo[d]imidazol-2-yl)-1,3,4-oxadiazol-2-amine]	> 5.00	
COc1nccc2[nH]c(Nc3nnc(-c4ccc5c(c4)OCO5)o3)nc12 [Compound 27, N-(4-Methoxy-1H-imidazo[4,5-c]pyridin-2-yl)-5-(benzo[d][1,3]dioxol-5-yl)-1,3,4-oxadiazol-2-amine]	> 5.00	
[2H]C([2H])([2H])Oc1ccc(-c2nnc(Nc3nc4c(OC)nccc4[nH]3)o2)cc1OC([2H])([2H])[2H] [Compound 97, 5-(3,4-Dimethoxy-d3-phenyl)-N-(4-methoxy-1H-imidazo[4,5-c]pyridin-2-yl)-1,3,4-oxadiazol-2-amine]	> 5.00	
COc1nccc2nc(Nc3nnc(N4CC(C)OC(C)C4)o3)[nH]c12 (centres unmarked) [Compound 70, 5-(2,6-dimethylmorpholino)-N-(4-methoxy-3H-imidazo[4,5-c]pyridin-2-yl)-1,3,4-oxadiazol-2-amine]	> 5.00	
COc1nccc2[nH]c(Nc3nnc(-c4ccc(OC(C)C)cc4)o3)nc12 [Compound 42, 5-(4-Isopropoxyphenyl)-N-(4-methoxy-1H-imidazo[4,5-c]pyridin-2-yl)-1,3,4-oxadiazol-2-amine]	4.30 to 5.00	
COc1cccc2nc(Nc3nnc(C4CCC(OC)CC4)o3)[nH]c12 (single isomer, unassigned) [Compound 75-isomer-1, N-(7-methoxy-1H-benzo[d]imidazol-2-yl)-5-(4-methoxycyclohexyl)-1,3,4-oxadiazol-2-amine]	> 5.00	
Fc1ccc(-c2nnc(Nc3nc4ccnc(-c5ccc6c(c5)OCO6)c4[nH]3)o2)cc1 [Compound 31, N-(4-(Benzo[d][1,3]dioxol-5-yl)-3H-imidazo[4,5-c]pyridin-2-yl)-5-(4-fluorophenyl)-1,3,4-oxadiazol-2-amine]	4.30 to 5.00	
COc1cccc2[nH]c(Nc3nnc(N4CCS(=O)(=O)CC4)o3)nc12 [Compound 76, 4-(5-((4-methoxy-1H-benzo[d]imidazol-2-yl)amino)-1,3,4-oxadiazol-2-yl)thiomorpholine 1,1-dioxide]	< 4.00	
